Data taken from EP1056700B1, “MEDICINAL USES OF PHENYLALKANOLS AND DERIVATES” (ZingoTX Pty Ltd, priority 1997, dated 1999).
“And” between values parts separate entries of the source, which are not always exact repeats. Equal values may be shown once.

Assays:
Platelet rich plasma = assay: Platelet aggregation: [^3H]-serotonin release from platelet rich plasma, arachidonic acid initiated; format: cell-based; conditions: Homo sapiens, activation by EC50 concentration of arachidonic acid
Procedure: Blood was collected from healthy volunteers who had taken no medication in the previous two weeks. The anticoagulant used was 3.8 % trisodium citrate. Platelet rich plasma was prepared and incubated with [^3H]-serotonin. This was followed by addition of gingerol analogues. Platelet activation was initiated using the EC50 concentration for arachidonic acid. The percentage of [^3H]-serotonin release was measured using a liquid scintillation counter. Then, dose-response curves were established and IC50 values were obtained.

Lipoxygenase (LP) = target: T1, Lipoxygenase (LP) (Rattus norvegicus, UniProt P12527); assay: Lipoxygenase assay with cell-free enzyme from RBL 2H3 cells (EIA); format: biochemical; conditions: final concentration of 10 µM
T1 construct: cell-free enzyme (Wong et al, 1991) prepared from rat basophilic leukemia (RBL) 2H3 cell lines; endogenous in cells; host or cells: RBL 2H3 (rat basophilic leukemia), 15,000 g supernatant of cells disrupted by nitrogen cavitation
T1 sequence (P12527 1-673): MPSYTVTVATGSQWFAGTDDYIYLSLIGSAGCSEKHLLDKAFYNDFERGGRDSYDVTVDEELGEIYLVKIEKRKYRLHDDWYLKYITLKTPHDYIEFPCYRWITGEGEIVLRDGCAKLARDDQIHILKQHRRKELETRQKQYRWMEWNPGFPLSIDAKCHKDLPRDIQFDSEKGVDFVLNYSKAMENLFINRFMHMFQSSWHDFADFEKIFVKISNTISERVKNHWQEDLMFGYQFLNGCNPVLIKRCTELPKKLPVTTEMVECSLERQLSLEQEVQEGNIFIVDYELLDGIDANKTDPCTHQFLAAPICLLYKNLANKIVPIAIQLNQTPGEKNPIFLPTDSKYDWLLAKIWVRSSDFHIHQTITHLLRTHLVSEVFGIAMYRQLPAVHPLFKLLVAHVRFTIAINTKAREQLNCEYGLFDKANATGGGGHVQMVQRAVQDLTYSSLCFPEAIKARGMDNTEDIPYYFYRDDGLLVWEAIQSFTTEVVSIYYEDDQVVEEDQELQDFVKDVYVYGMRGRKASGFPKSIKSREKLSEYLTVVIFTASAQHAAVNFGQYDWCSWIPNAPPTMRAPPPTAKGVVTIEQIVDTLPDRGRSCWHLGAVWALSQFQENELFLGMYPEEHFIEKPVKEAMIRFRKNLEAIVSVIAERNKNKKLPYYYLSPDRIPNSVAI
Procedure: Lipoxygenase (LP) assay was performed with cell-free enzyme (Wong et al, 1991) prepared from rat basophilic leukemia (RBL) 2H3 cell lines. Cells were cultured in EMEM containing 10% fetal calf serum and antibiotic until cells reached confluence. Harvested cells were resuspended in Hepes (10 mM) buffer, pH 7.4, containing 1 mM EDTA at 1 x 10^7 cells/ml, and disrupted by nitrogen cavitation using a Parr bomb at 750 psi for 15 min. The broken cells were centrifuged at 15,000 g for 30 min. Aliquots (0.1 ml) of the supernatant were preincubated with or without drugs in Hepes buffer (10 mM Hepes, pH 7, 1 mM EDTA and 150 mM NaCl) for 5 min, and the reaction was initiated with the addition of 50 µl of CaCl2 (16 mM), 50 µl of ATP (2 mM), 5 µl of PAF (2.5 mg/ml) and 5 µl of AA (2.5 mM). The reaction mixture ([…]) was incubated at room temperature for a further 8 min, then diluted with EIA buffer at 1/200 and 1/2000 dilutions and stored on ice for EIA following the protocol provided with the kit.
Validation of LP enzyme activity was carried out by a UV spectrophotometric method in which the enzyme activity was characterised against various concentrations of Ca^2+, ATP, PAF and AA with the measurement of the formation of diene conjugated products of LP at 235 nm.
All compounds were dissolved in DMSO and assayed at a final concentration of 10 µM. NDGA was used as reference compound. The concentration of DMSO in the assay was maintained at 1.5%.

Cyclo-oxygenase (COX) = assay: Cyclo-oxygenase assay in RBL 2H3 cells (PGD2 EIA); format: cell-based, rat; conditions: final concentration of 10 µM
Procedure: Cyclo-oxygenase (COX) assay was performed with cells in culture prepared from rat basophilic leukemia (RBL) 2H3 cell lines. Cells were cultured in EMEM containing 10% fetal calf serum and antibiotic until cells reached confluence. Harvested cells were subsequently seeded on 24-well plates at 1 x 10^6 cells/ml then incubated at 37°C for 3 hours. Cells were washed twice with incubation buffer (1.5 ml) containing 5 mM Hepes, 140 mM NaCl, 5 mM KCl, 0.6 mM MgCl2, 1 mM CaCl2 and […]. Cells were then covered with 0.49 ml of buffer, followed by addition of samples/solvents (0.005 ml) and incubated at 37 °C for 5 min on an orbital shaker. Arachidonic acid (0.005 ml, containing 50% EtOH) was subsequently added, and the plate was incubated at similar conditions for a further 10 min. The supernatant (0.1 ml) was aliquoted for methoxime derivatisation of PGD2, which was carried out by heating the supernatant with methoxime solution (1:1) at 60 °C for 30 min according to the instructions provided with the kit. The resultant solution was diluted with EIA buffer and stored on ice for EIA, following the protocol provided with the kit.
Validation of COX enzyme activity was carried out using EIA in which the enzyme activity was characterised against various concentrations of AA and a time course of enzyme activity.
[…] Indomethacin was used as reference compound. The concentration of DMSO in the assay was maintained at 1.5%.

DRG neuronal cells = assay: Peak [Ca^2+]i transients in cultured dorsal root ganglion neurons (Fura-2); format: cell-based, rat; conditions: 10 µM applied for 1 min, 2 mM Ca^2+
Procedure: DRG from neonatal (3-5 days old) rat or adult Sprague-Dawley rats were incubated in Hanks CMF saline with 0.05% collagenase and 0.25% trypsin for 25 min at 37° C. Individual cells were obtained by trituration with fire polished Pasteur pipettes of diminishing diameters. Neurones were isolated from the cell suspension in 30% Percoll and then plated on collagen coated coverslips or in 24-well plates, then cultured in neurobasal medium with B27 supplement, 50 ng/ml 2.5 S nerve growth factor, 2 mM 1-glutamine and 100 U/ml penicillin/streptomycin. Cultures were maintained at 37° C with 5% CO2. 30% Percoll increases the percentage of capsaicin-sensitive DRG neurones up to 70%. For peak [Ca^2+]i transients measurements, cells on coverslips were incubated with 5 µM Fura-2 AM for 30 min at 37° C. The coverslips were then mounted on a chamber attached to a fast sample application perfusion system which allows changing solutions in the second range. Recordings were made on the stage of a Nikon Diaphot inverted microscope fitted with a Nikon 40 x Fluo (NA 0.85) DL Ph3 or 40 x Fluo (NA 1.3) oil objective. [Ca^2+]i was calculated from dual excitation wavelength (340/380 nm) fluorescence measurements following an intracellular calibration procedure by the Grynkiewicz equation, using MCID M2/M4 v.3.0 (Imaging Res. Inc.) software. Cells were continuously perfused with a solution consisting of 140 mM NaCl, 2 mM CaCl2, 5 mM KCl, 20 mM HEPES, 10 mM glucose, pH 7.4. To study KCl evoked depolarisation, 50 mM NaCl was replaced by equimolar KCl. Cytoplasmic localisation of Fura-2 was tested with the Mn^2+ quenching technique (Dedov and Roufogalis, 1998). All experiments were performed at room temperature (20-23°C).
Typical changes in [Ca^2+]i upon depolarisation were evoked by 50 mM KCl and by application of 1 µM capsaicin; both were applied for 30 sec. Capsaicin-evoked peak [Ca^2+]i transients are characterised by a fast rise and long-steady state [Ca^2+]i clearance from the cytoplasm. In capsaicin-sensitive cells the half-time of cytoplasmic Ca^2+ clearance was proportional to the amplitudes of peak [Ca^2+]i transients.
To examine the effect of gingerol derivatives, one or several compounds in succession at a concentration of 10 µM were applied for 1 min to the DRG neuronal cells followed by washing out for 4 min with physiological solution. To the capsaicin-sensitive cells, 10 µM capsaicin and 50 mM KCl were applied, respectively, to confirm the viability of the cells. In addition, morphological appearances of the cells were also examined at the end of experiment. […]

rat mesenteric artery = assay: Vasodilation on rat mesenteric small arteries
Text: Small arteries (200-300 µm in diameter) isolated from rat mesentery were precontracted with endothelin prior to addition of the test substances and tested for relaxation.

guinea pig atria = assay: Organ bath assay on isolated guinea pig atria (rate and force of contraction); conditions: result in words, guinea pig atria
Procedure: Male guinea pigs, 3-4 weeks old, were killed by rapid cervical dislocation without induced anaesthesia. Then, the guinea pigs were dissected to isolate the atria which were immediately mounted vertically in an organ bath containing Krebs-Henseleit solution oxygenated with carbogen.
One gram tension was applied to the atria and the base line continuously adjusted until it was stable for 20 mins. The rate and force of contraction were recorded using Mac Lab equipment.
Test substances in DMSO were assayed to a maximum concentration of 50 µM at a final concentration of 2.5 % of DMSO.

[1] = test system: brine shrimp (Artemia salina Leach); conditions: values determined by Meyer et al. (1982); cited from earlier work
[2] = Brine shrimp toxicity bioassay; format: in vivo; conditions: Artemia salina (brine shrimp), in vivo; 24 hours, 2% DMSO
Text: The brine shrimp assay procedure determines LC50 values of active compounds. Activities of a broad range of known active compounds are manifested as toxicity to brine shrimp (Artemia salina Leach). There are many applications of the assay including analysis of toxic substances, anaesthetics, morphine-like substances and cocarcinogenicity of phorbol esters.
The method for testing solvent toxicity used was basically that reported by J L McLaughlin in Methods of Plant Biochemistry (1991), vol. 6 (K Hostettman, ed.), Academic Press, London, 1-32. DMSO solutions of the substances to be tested were added directly to the vials containing the brine shrimp. As the concentration of DMSO that we wished to use was higher than the recommended 1% v/v testing of the toxicity of the DMSO was therefore necessary. The concentrations of DMSO tested on the shrimp, along with the results from the assay which was done in duplicate are listed below.
Brine shrimp toxicity was assayed, except for some minor modifications, according to the method of McLaughlin et al as reported in Brine Shrimp: A convenient bioassay for active plant constituents, B N Meyer, N R Ferrigni, J E Putnam, L B Jacobsen, D E Nichols and J L McLaughlin in Planta Medica (1982), 45, 31-34 and Crown gall tumours on potato discs and brine shrimp lethality: Two simple bioassays for higher plant screening and fractionation. J L McLaughlin. Methods of Plant Biochemistry (1991), vol. 6 (K Hostettman, ed.), Academic Press, London, 1-32. Ten shrimp were transferred to each of the vials and the volume adjusted to 4.9 mL. Each dose was performed in triplicate, including the control. In quick succession, the appropriate volume of additional DMSO for each dose, required to achieve a final concentration of 2%, was added before the appropriate volume of test solution. The vials were gently mixed and the time noted. After 24 hours, the number of survivors were counted and % mortality was determined. The test compounds were assayed at concentrations of 100 µM, 25 µM, 5 µM, 1 µM and 0.2 µM (and where appropriate concentrations of 0.04 µM and 0.008 µM).
The brine shrimp were able to survive without food in the vials over the 24 hour period and were therefore not fed.
The dose-response curves were constructed using the Sigmaplot computer program and the LC50 value was calculated from the intersection point of the curve and the 50 % mortality line. The LC50 values were expressed in both µM and µg/mL.

| SMILES | IC50 (Platelet rich plasma) | activity at 10 µM (Lipoxygenase (LP)) | Cyclooxygenase activity % activity (Cyclo-oxygenase (COX)) | Number of capsaicin-sensitive cells responding (DRG neuronal cells) | Peak [Ca^2+]i (Average ±SD) (DRG neuronal cells) | also measured |
| --- | --- | --- | --- | --- | --- | --- |
| CCCCCCCCCC(=O)C(O)c1ccc(O)c(OC)c1 (stereo not drawn) [1-hydroxy-1-(4-hydroxy-3-methoxyphenyl)undecan-2-one] | 69.4 ± 2.6 µM | 83% | 16% |  |  |  |
| CCCCCCCCCCC(C)(O)CCc1ccc(O)c(OC)c1 (stereo not drawn) [3-methyl-1-(4-hydroxy-3-methoxyphenyl)tridecan-3-ol] | 75.3 ± 3.1 µM | 5% |  |  |  |  |
| CCCCCCCCC(C)(O)CCc1ccc(O)c(OC)c1 (stereo not drawn) [3-methyl-1-(4-hydroxy-3-methoxyphenyl)undecan-3-ol] | 45.3 ± 1.6 µM | 3% | 15% | 0 out of 4 | 0 nM |  |
| CC(=O)Oc1ccccc1C(=O)O [Aspirin, reference compound] | 23.4 ± 1.7 µM |  |  |  |  |  |
| CCCCCCCCCC(=O)CCc1ccc(O)c(OC)c1 [[8]-paradol, 1-(4-hydroxy-3-methoxyphenyl)dodecan-3-one, reference compound] |  | 81% | 11% | 1 | 200 nM | EC50 (rat mesenteric artery; Rattus norvegicus, relaxation of small arteries (200-300 µm) precontracted with endothelin): 0.05 µM; relaxation of rat mesenteric artery (rat mesenteric artery; result in words): showed potency; FORCE OF CONTRACT^n (guinea pig atria): inactive; HEART RATE (guinea pig atria): inactive |
| COc1cc([C@@H]2c3cc4c(cc3[C@H](O)[C@H]3COC(=O)[C@H]23)OCO4)cc(OC)c1OC [podophyllotoxin, reference compound] |  |  |  |  |  | LC50 [1]: 5.8 µM; LC50 at 24 h [2]: 3.8 µM and 1.6 µg/mL |
